From US10196353B2, “Chemical compounds” (GlaxoSmithKline Intellectual Property (No. 2) Limited, priority 2012, dated 2019)

Experiments:
[1] = target: androgen receptor (MBP-hAR-LBD, rat androgen ligand binding domain) (Rattus norvegicus (Rat), UniProt P15207); assay: Androgen receptor fluorescence polarization assay; settings: read-out: % Max
Excerpt: • The following abbreviations and sources of materials are used • Fluormone PL Red—a commercially available PR fluoroprobe (Invitrogen, P2964) • Fluormone GS Red—a commercially available GR fluoroprobe (PanVera Corp, Product No P2894) • Fluormone AL Red—a commercially available AR fluoroprobe (Invitrogen, PV4294,) • MBP-hPR-LBD—maltose binding protein Purified human progesterone ligand binding domain (made in house) • GR—purified human glucocorticoid receptor (PanVera Corp, Product No P2812) • MBP-hAR-LBD—maltose binding protein Purified rat androgen ligand binding domain (made in house) • PR Screening Buffer—100 mM potassium phosphate (pH 7.4), 100 μG/ml bovine gamma globulin, 15% ethylene glycol, 10% glycerol with 2 mM CHAPS, 1 mM DTT added fresh and 4% DMSO added fresh (final of 5% DMSO in assay with 1% concentration coming from compound dispense) • AR Screening Buffer—50 mM Tris pH 7.5, 100 mM Ammonium Sulfate, 20% glycerol, 3% xylitol with 5 mM Chaps, 2 mM DTT added fresh and 4% DMSO added fresh (final of 5% DMSO in assay with 1% concentration coming from compound dispense) • GR Screening Buffer—100 mM potassium phosphate (pH 7.4), 200 mM Na2MoO2, 1 mM EDTA, 20% DMSO (PanVera Corp Product No P2814) with GR stabilizing peptide (100 μM) (PanVera Corp Product No P2815) • DTT—dithiothreitol (PanVera Corp Product No P2325) • Discovery Analyst—is an FP reader • DMSO—dimethylsulphoxide Progesterone Receptor Fluorescence Polarization Assay:
The androgen receptor fluorescence polarization assay is used to investigate the interaction of the compounds with the androgen receptor.
Compounds are added to the 384 well black low-volume plates to a final volume of 0.1 μL. DTT and DMSO are added to the chilled assay buffer just before beginning assay. Sufficient Fluormone AL Red and AR-LBD are defrosted on ice and added to the chilled buffer in a glass tube to give a final concentration of 1 nM and 100 nM, (for current batch) respectively. A volume of 10 μL of the assay mix is added to compound plates with a multidrop. […] The plates are counted in a Discovery Analyst with suitable 535 nm excitation and 590 nm emission interference filters (Dichroic 561 nM). […] Test compounds are dissolved and diluted in DMSO. Compounds are assayed in singlicate, a four parameter curve fit of the following form being applied
[formula] where a is the minimum, b is the Hill slope, c is the IC50 and d is the maximum.
Data is presented as the mean pIC50 with the standard error of the mean of n experiments.

[2] = test system: castrated male Sprague-Dawley rats; assay: Castrated male rat model (ORX rat); format: in vivo; settings: for prostate sparing: defined as at least a 2:1 ratio of levator ani ED50 to prostate ED50; for levator ani hypertrophy: favorable = 30% or greater increase in levator ani weight vs vehicle-treated castrates, dosed orally at up to 10 mg/kg/day
Excerpt: The activity of the compounds of the present invention as modulators of the androgen receptor was investigated using a castrated male rat model (ORX) as described in C. D. Kockakian, Pharmac. Therap. B1(2), 149-177 (1975); C. Tobin and Y. Joubert, Developmental Biology 146, 131-138 (1991); J. Antonio, J. D. Wilson and F. W. George, J Appl. Physiol. 87(6) 2016-2019 (1999)) the disclosures of which herein are included by reference.
Androgens have been identified as playing important roles in the maintenance and growth of many tissues in both animals and humans. Muscles, like the levator ani and bulbocavernosus, and sexual accessory organs, such as the prostate glands and seminal vesicles have high expression levels of the androgen receptor and are known to respond quickly to exogenous androgen addition or androgen deprivation through testicular ablation. Castration produces dramatic atrophy of muscle and sexual accessory organs; whereas the administration of exogenous androgens to the castrated animal results in effective hypertrophy of these muscles and sexual accessory organs. Although the levator ani muscle, also known as the dorsal bulbocavernosus, is not ‘true skeletal muscle’ and definitely sex-linked, it is reasonable to use this muscle to screen muscle anabolic activities of test compounds because of its androgen responsiveness and simplicity of removal.
Male Sprague-Dawley rats weighing 160-180 grams were used in the assay. The rats were singly caged upon receiving and throughout the study. Bilateral orchidectomies were performed in sterilized surgical conditions under isoflurane anesthesia. An anteroposterior incision was made in the scrotum. The testicles were exteriorized and the spermatic artery and vas deferens were ligated with 4.0 silk 0.5 cm proximal to the ligation site. The testicles then were removed by a surgical scissors distal to the ligation sites. The tissue stumps were returned to the scrotum, the scrotum and overlying skin were closed by a surgical stapler. The Sham-ORX rats underwent all procedures except ligation and scissors cutting. The rats were assigned randomly into study groups 7-10 days post surgery based on the body weight.
Dihydrotestosterone (DHT) and the standard SARM, S-22, (J. Pharma. Exper. Thera. Vol 315, p. 230) were used as a positive control (1-10 mg/kg s.c. for DHT and 0.1 to 3 mg/kg p.o. for S-22). Compounds of the current invention were administered subcutaneously or orally for 4-28 days. Alternatively, some compounds of the current invention were administered subcutaneously or orally for 7-49 days. The rats were weighed daily and doses were adjusted accordingly. The general well being of the animal was monitored throughout the course of the study.
At the end of the study, the rats were euthanized in a CO2 chamber. The ventral prostate glands (VP), seminal vesicles (SV), levator ani muscle (LA) and bulbocavernosus (BC) were carefully dissected. The tissues were blotted dry; the weights were recorded, and then saved for histological and molecular analysis. The VP and SV weights serve as androgenic indicators and LA and BC as anabolic indicators. The ratio of anabolic to androgenic activities was used to evaluate the test compounds. Serum luteinizing hormone (LH), follicle stimulating hormone (FSH) and other potential serum markers of anabolic activities were also analyzed.
The compounds shown in Examples 9, 20, 26, 27, 33, 51, 52, and 53 were tested in the castrated male rate model essentially as described above. Test compounds were employed in free or salt form. […] Prostate sparing was defined as at least a 2:1 ratio of levator ani ED50 to prostate ED50. The ED50 is defined as 50% of the maximum response above the vehicle treated castrate level. For shorter term studies (4-7 days), the maximum response is defined as the maximum response from positive control (DHT or standard SARM, S-22) treatment. For the longer term studies (7-49 days), the ED50 is defined as 50% of the eugonadal state. […]

Sequence of androgen receptor (MBP-hAR-LBD, rat androgen ligand binding domain) (P15207 651-882): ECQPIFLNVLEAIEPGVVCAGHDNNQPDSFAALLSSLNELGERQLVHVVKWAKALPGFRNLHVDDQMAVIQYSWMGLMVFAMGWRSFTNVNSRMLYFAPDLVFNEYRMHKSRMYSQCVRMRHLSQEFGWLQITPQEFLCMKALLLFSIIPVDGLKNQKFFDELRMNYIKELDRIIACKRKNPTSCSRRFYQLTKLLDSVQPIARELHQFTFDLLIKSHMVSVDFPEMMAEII

Row | Compound | Emax [1] | prostate sparing [2] | levator ani hypertrophy [2]
1 | C[C@@H](n1ccc2c(C(F)(F)F)c(C#N)ccc21)C(C)(C)O [Example 22, (R)-1-(3-Hydroxy-3-methylbutan-2-yl)-4-(trifluoromethyl)-1H-indole-5-carbonitrile] | 100% |  | 
2 | C[C@H](CS(C)(=O)=O)n1ccc2c(C(F)(F)F)c(C#N)ccc21 [Example 27, (R)-1-(1-(Methylsulfonyl)propan-2-yl)-4-(trifluoromethyl)-1H-indole-5-carbonitrile] | 91% | spared the prostate | favorable levator ani hypertrophy
3 | Cc1cc2c(C(F)(F)F)c(C#N)ccc2n1C(C)CO (stereo not shown) [Example 7, 1-(1-Hydroxypropan-2-yl)-2-methyl-4-(trifluoromethyl)-1H-indole-5-carbonitrile] | 100% |  | 
4 | C[C@H](n1ccc2c(C(F)(F)F)c(C#N)ccc21)C(C)(C)O [Example 21, (S)-1-(3-Hydroxy-3-methylbutan-2-yl)-4-(trifluoromethyl)-1H-indole-5-carbonitrile] | 100% |  | 
5 | CCCc1cc2c(C(F)(F)F)c(C#N)ccc2n1CC(C)(C)O [Example 12, 1-(2-Hydroxy-2-methylpropyl)-2-propyl-4-(trifluoromethyl)-1H-indole-5-carbonitrile] | 90% |  | 
6 | C[C@H](n1ccc2c(Cl)c(C#N)ccc21)C(C)(C)O [Example 32, (S)-4-Chloro-1-(3-hydroxy-3-methylbutan-2-yl)-1H-indole-5-carbonitrile] | 78% |  | 
7 | CCC(C(=O)OC)n1c(C)cc2c(C(F)(F)F)c(C#N)ccc21 (stereo not shown) [Example 2, Methyl 2-[5-cyano-2-methyl-4-(trifluoromethyl)-1H-indol-1-yl]butanoate] | 72% |  | 
8 | CC(C)(O)C(C)(C)n1ccc2c(C#N)c(C#N)ccc21 [Example 43, 1-(3-Hydroxy-2,3-dimethylbutan-2-yl)-1H-indole-4,5-dicarbonitrile] | 105% |  | 
9 | CSCC(C)n1c(C(F)F)cc2c(C#N)c(C#N)ccc21 (stereo not shown) [Example 17, 2-(Difluoromethyl)-1-(1-(methylthio)propan-2-yl)-1H-indole-4,5-dicarbonitrile] | 99% |  | 
10 | C[C@@H](n1ccc2c(Cl)c(C#N)ccc21)[C@](C)(O)C(F)(F)F [Example 52, 4-Chloro-1-((2R,3S)-4,4,4-trifluoro-3-hydroxy-3-methylbutan-2-yl)-1H-indole-5-carbonitrile] | 97% | spared the prostate | favorable levator ani hypertrophy
11 | C[C@@H](n1ccc2c(C(F)(F)F)c(C#N)ccc21)[C@](C)(O)C(F)(F)F [Example 53, 1-((2R,3S)-4,4,4-Trifluoro-3-hydroxy-3-methylbutan-2-yl)-4-(trifluoromethyl)-1H-indole-5-carbonitrile] |  | spared the prostate | favorable levator ani hypertrophy
12 | Cc1cc2c(C(F)(F)F)c(C#N)ccc2n1C(C)CS(C)(=O)=O (stereo not shown) [Example 9, 2-Methyl-1-(1-(methylsulfonyl)propan-2-yl)-4-(trifluoromethyl)-1H-indole-5-carbonitrile] |  | spared the prostate | favorable levator ani hypertrophy
13 | CC(CS(C)(=O)=O)n1ccc2c(C(F)(F)F)c(C#N)ccc21 (stereo not shown) [Example 26, 1-(1-(Methylsulfonyl)propan-2-yl)-4-(trifluoromethyl)-1H-indole-5-carbonitrile] |  | spared the prostate | favorable levator ani hypertrophy
14 | CC[C@H](c1cncc(C#N)c1)n1ccc2c(C#N)c(C#N)ccc21 [Example 51, (R)-1-(1-(5-Cyanopyridin-3-yl)propyl)-1H-indole-4,5-dicarbonitrile] |  | spared the prostate | favorable levator ani hypertrophy
